Laboratory results published in US7368286B2, “Method and device for identifying substances capable of modulating adipocyte differentiation” (Genfit, priority 2002, dated 2008).

Tested on: aP2 and PPAR GAMMA receptor mRNA in 3T3-L1 cells
Test: Northern blot of adipocyte markers in 3T3-L1 cells infected with MFG-Neo or MFG-REV retrovirus
Format: cell-based
Conditions: control cells (MFG-Neo)
Procedure: 3T3-L1 cells were infected with either MFG-Neo or MFG-REV retrovirus and treated for 8 days with a mixture containing IBMX and insulin (“Mix”), with or without 1 μM rosiglitazone. mRNA was then extracted and analyzed by Northern blot using the indicated probes.
RNA extraction and Northern blot analyses were carried out according to the previously described method (Staels, B. et al., Arteriosclerosis and Thrombosis 1992, 12(3): 286-294) using rat Rev-erb alpha, murine PPAR gamma and murine aP2, chicken beta-actin and human 36B4 cDNA probes.
Cells post-confluent after two days of culture (designated day D0) were transferred to differentiation medium (DMEM, 10% FCS, 1 μM dexamethasone, 10 μg/ml insulin and 0.5 mM 3-methyl-1-isobutylxanthine (IBMX) (Sigma, St Louis, Mo., USA)) for two days. Cells were then grown in post-differentiation medium (DMEM, 10% FCS, insulin) with or without rosiglitazone. The medium was changed every day. Stable 3T3-L1 pre-adipocytes expressing the REV-ERB ALPHA receptor were grown in the same conditions but differentiated without dexamethasone. After the treatment, cells were fixed with 10% formaldehyde in PBS and stained with Oil Red O (Sigma, St Louis, Mo., USA). Alternatively, total RNA was extracted as described earlier.
3T3-L1 pre-adipocytes were then infected with the resulting virus. […]

CN(CCOc1ccc(CC2SC(=O)NC2=O)cc1)c1ccccn1 (stereo not shown) [rosiglitazone]
time until high aP2 and PPAR GAMMA receptor mRNA levels were observed: 8 to 12 days
